Data: PubChem BioAssay (NCI)
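Protocol summary: plate cells (96-well), add compound at 5 concentrations, incubate 48 h, interpolate endpoints linearly. GI50 is the concentration that inhibits growth by half. TGI: total growth inhibition.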

Assays:
Test in all cases: inhibition of tumour cell growth, NCI panel, 48 h
A549 NSCLC = test system: A549 NSCLC
SR leukemia = test system: SR leukemia
MDA-MB-435 = test system: MDA-MB-435
UACC-62 melanoma = test system: UACC-62 melanoma
EKVX NSCLC = test system: EKVX NSCLC
SF-295 CNS = test system: SF-295 CNS
HT29 colon = test system: HT29 colon
786-0 renal = test system: 786-0 renal
SK-MEL-2 melanoma = test system: SK-MEL-2 melanoma
OVCAR-5 ovarian = test system: OVCAR-5 ovarian
T-47D breast = test system: T-47D breast
NCI/ADR-RES ovarian = test system: NCI/ADR-RES ovarian
HOP-92 NSCLC = test system: HOP-92 NSCLC
TK-10 renal = test system: TK-10 renal
UO-31 renal = test system: UO-31 renal
CCRF-CEM leukemia = test system: CCRF-CEM leukemia
SW-620 colon = test system: SW-620 colon
NCI-H460 lung = test system: NCI-H460 lung
SK-MEL-5 melanoma = test system: SK-MEL-5 melanoma
NCI-H23 lung = test system: NCI-H23 lung
SNB-19 CNS = test system: SNB-19 CNS
K-562 leukemia = test system: K-562 leukemia
SF-268 CNS = test system: SF-268 CNS
MDA-MB-231 breast = test system: MDA-MB-231 breast
SK-MEL-28 melanoma = test system: SK-MEL-28 melanoma
NCI-H226 lung = test system: NCI-H226 lung
HL-60(TB) leukemia = test system: HL-60(TB) leukemia
HCC-2998 colon = test system: HCC-2998 colon
IGROV1 ovarian = test system: IGROV1 ovarian
RPMI-8226 leukemia = test system: RPMI-8226 leukemia
CAKI-1 renal = test system: CAKI-1 renal
HCT-116 colon = test system: HCT-116 colon
MALME-3M melanoma = test system: MALME-3M melanoma
SNB-75 CNS = test system: SNB-75 CNS
PC-3 prostate = test system: PC-3 prostate
COLO 205 colon = test system: COLO 205 colon
U251 CNS = test system: U251 CNS
DU-145 prostate = test system: DU-145 prostate
OVCAR-3 ovarian = test system: OVCAR-3 ovarian
KM12 colon = test system: KM12 colon
LOX IMVI melanoma = test system: LOX IMVI melanoma
BT-549 breast = test system: BT-549 breast
MOLT-4 leukemia = test system: MOLT-4 leukemia
MCF7 breast = test system: MCF7 breast
SK-OV-3 ovarian = test system: SK-OV-3 ovarian
OVCAR-4 ovarian = test system: OVCAR-4 ovarian
NCI-H522 lung = test system: NCI-H522 lung
OVCAR-8 ovarian = test system: OVCAR-8 ovarian
RXF 393 renal = test system: RXF 393 renal
SF-539 CNS = test system: SF-539 CNS
M14 melanoma = test system: M14 melanoma
HOP-62 NSCLC = test system: HOP-62 NSCLC
A498 renal = test system: A498 renal
UACC-257 melanoma = test system: UACC-257 melanoma
HS 578T breast = test system: HS 578T breast
HCT-15 colon = test system: HCT-15 colon
ACHN renal = test system: ACHN renal
SN12C renal = test system: SN12C renal

`COc1ccc2[nH]c(C(=O)N3CCN(C(=O)OCc4ccc5c(Br)cc(Br)c(O)c5n4)CC3)cc2c1` was tested, and the GI50 (A549 NSCLC) was 1680 nM, the TGI (A549 NSCLC) was 3590 nM and the GI50 (SR leukemia) was 243 nM. For the same compound, the TGI (SR leukemia) was 1230 nM, the GI50 (MDA-MB-435) was 258 nM and the TGI (MDA-MB-435) was 695 nM. For the same compound, the GI50 (UACC-62 melanoma) was 258 nM, the TGI (UACC-62 melanoma) was 749 nM and the GI50 (EKVX NSCLC) was 1370 nM. It also gave a TGI (EKVX NSCLC) of 2930 nM, a GI50 (SF-295 CNS) of 1610 nM and a TGI (SF-295 CNS) of 3030 nM. It also gave a GI50 (HT29 colon) of 318 nM, a TGI (HT29 colon) of 1030 nM and a GI50 (786-0 renal) of 270 nM. The TGI (786-0 renal) was 759 nM, the GI50 (SK-MEL-2 melanoma) was 577 nM and the TGI (SK-MEL-2 melanoma) was 1550 nM. For the same compound, the GI50 (OVCAR-5 ovarian) was 603 nM, the TGI (OVCAR-5 ovarian) was 1980 nM and the GI50 (T-47D breast) was 1350 nM. The TGI (T-47D breast) was 4460 nM, the GI50 (NCI/ADR-RES ovarian) was 336 nM and the TGI (NCI/ADR-RES ovarian) was 1760 nM. For the same compound, the GI50 (HOP-92 NSCLC) was 178 nM, the TGI (HOP-92 NSCLC) was 860 nM and the GI50 (TK-10 renal) was 306 nM. It also gave a TGI (TK-10 renal) of 1010 nM, a GI50 (UO-31 renal) of 153 nM and a TGI (UO-31 renal) of 323 nM. The GI50 (CCRF-CEM leukemia) was 238 nM, the TGI (CCRF-CEM leukemia) was 1630 nM and the GI50 (SW-620 colon) was 222 nM. For the same compound, the TGI (SW-620 colon) was 507 nM, the GI50 (NCI-H460 lung) was 1360 nM and the TGI (NCI-H460 lung) was 3140 nM. It also gave a GI50 (SK-MEL-5 melanoma) of 620 nM, a TGI (SK-MEL-5 melanoma) of 1770 nM and a GI50 (NCI-H23 lung) of 1480 nM. For the same compound, the TGI (NCI-H23 lung) was 3150 nM, the GI50 (SNB-19 CNS) was 1460 nM and the TGI (SNB-19 CNS) was 2830 nM. It also gave a GI50 (K-562 leukemia) of 294 nM, a TGI (K-562 leukemia) of 978 nM and a GI50 (SF-268 CNS) of 1200 nM. For the same compound, the TGI (SF-268 CNS) was 2740 nM, the GI50 (MDA-MB-231 breast) was 388 nM and the TGI (MDA-MB-231 breast) was 1390 nM. For the same compound, the GI50 (SK-MEL-28 melanoma) was 448 nM, the TGI (SK-MEL-28 melanoma) was 1510 nM and the GI50 (NCI-H226 lung) was 496 nM. It also gave a TGI (NCI-H226 lung) of 1050 nM, a GI50 (HL-60(TB) leukemia) of 318 nM and a TGI (HL-60(TB) leukemia) of 1140 nM. The GI50 (HCC-2998 colon) was 898 nM, the TGI (HCC-2998 colon) was 2390 nM and the GI50 (IGROV1 ovarian) was 368 nM. For the same compound, the TGI (IGROV1 ovarian) was 1360 nM, the GI50 (RPMI-8226 leukemia) was 243 nM and the TGI (RPMI-8226 leukemia) was 809 nM. For the same compound, the GI50 (CAKI-1 renal) was 244 nM, the TGI (CAKI-1 renal) was 749 nM and the GI50 (HCT-116 colon) was 178 nM. It also gave a TGI (HCT-116 colon) of 393 nM, a GI50 (MALME-3M melanoma) of 1020 nM and a TGI (MALME-3M melanoma) of 2370 nM. The GI50 (SNB-75 CNS) was 735 nM, the TGI (SNB-75 CNS) was 2160 nM and the GI50 (PC-3 prostate) was 442 nM. For the same compound, the TGI (PC-3 prostate) was 1500 nM, the GI50 (COLO 205 colon) was 193 nM and the TGI (COLO 205 colon) was 426 nM. For the same compound, the GI50 (U251 CNS) was 1290 nM, the TGI (U251 CNS) was 2590 nM and the GI50 (DU-145 prostate) was 396 nM. It also gave a TGI (DU-145 prostate) of 1370 nM, a GI50 (OVCAR-3 ovarian) of 197 nM and a TGI (OVCAR-3 ovarian) of 427 nM. The GI50 (KM12 colon) was 1370 nM, the TGI (KM12 colon) was 2830 nM and the GI50 (LOX IMVI melanoma) was 172 nM. It also gave a TGI (LOX IMVI melanoma) of 334 nM, a GI50 (BT-549 breast) of 213 nM and a TGI (BT-549 breast) of 585 nM. It also gave a GI50 (MOLT-4 leukemia) of 298 nM, a TGI (MOLT-4 leukemia) of 966 nM and a GI50 (MCF7 breast) of 262 nM. For the same compound, the TGI (MCF7 breast) was 1180 nM, the GI50 (SK-OV-3 ovarian) was 1870 nM and the TGI (SK-OV-3 ovarian) was 3390 nM. For the same compound, the GI50 (OVCAR-4 ovarian) was 302 nM, the TGI (OVCAR-4 ovarian) was 972 nM and the GI50 (NCI-H522 lung) was 206 nM. It also gave a TGI (NCI-H522 lung) of 546 nM, a GI50 (OVCAR-8 ovarian) of 277 nM and a TGI (OVCAR-8 ovarian) of 857 nM. The GI50 (RXF 393 renal) was 208 nM, the TGI (RXF 393 renal) was 575 nM and the GI50 (SF-539 CNS) was 926 nM. It also gave a TGI (SF-539 CNS) of 2250 nM, a GI50 (M14 melanoma) of 262 nM and a TGI (M14 melanoma) of 753 nM. It also gave a GI50 (HOP-62 NSCLC) of 1590 nM, a TGI (HOP-62 NSCLC) of 3660 nM and a GI50 (A498 renal) of 1580 nM. The TGI (A498 renal) was 2980 nM, the GI50 (UACC-257 melanoma) was 447 nM and the TGI (UACC-257 melanoma) was 1400 nM. The GI50 (HS 578T breast) was 1050 nM, the TGI (HS 578T breast) was 4290 nM and the GI50 (HCT-15 colon) was 219 nM. The TGI (HCT-15 colon) was 596 nM, the GI50 (ACHN renal) was 170 nM and the TGI (ACHN renal) was 335 nM. The GI50 (SN12C renal) was 313 nM and the TGI (SN12C renal) was 1070 nM.
